Experimental data from PubChem BioAssay (NCI).
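Growth conditions: 96-well plates. Treatment: test compound, 48 hours, 5 concentrations. Analysis: linear interpolation between bracketing concentrations; unreached endpoints set to highest concentration. At the GI50, growth is halved. TGI: total growth inhibition.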

Experiments:
Assay in all cases: growth of human tumour cells (NCI), 48 h
HT29 colon = test system: HT29 colon
LOX IMVI melanoma = test system: LOX IMVI melanoma
SNB-75 CNS = test system: SNB-75 CNS
UACC-257 melanoma = test system: UACC-257 melanoma
COLO 205 colon = test system: COLO 205 colon
U251 CNS = test system: U251 CNS
SR leukemia = test system: SR leukemia
OVCAR-8 ovarian = test system: OVCAR-8 ovarian
NCI-H226 lung = test system: NCI-H226 lung
CAKI-1 renal = test system: CAKI-1 renal

SMILES	TGI (HT29 colon) [µM]	TGI (LOX IMVI melanoma) [µM]	TGI (SNB-75 CNS) [µM]	TGI (UACC-257 melanoma) [µM]	TGI (COLO 205 colon) [µM]	TGI (U251 CNS) [µM]	TGI (SR leukemia) [µM]	TGI (OVCAR-8 ovarian) [µM]	GI50 (HT29 colon) [µM]	GI50 (LOX IMVI melanoma) [µM]	GI50 (SNB-75 CNS) [µM]	GI50 (NCI-H226 lung) [µM]	TGI (NCI-H226 lung) [µM]	GI50 (UACC-257 melanoma) [µM]	GI50 (COLO 205 colon) [µM]	GI50 (U251 CNS) [µM]	GI50 (CAKI-1 renal) [µM]	TGI (CAKI-1 renal) [µM]	GI50 (OVCAR-8 ovarian) [µM]	GI50 (SR leukemia) [µM]
CN(C)CC/C(=N\Nc1ccc(Cl)c(Cl)c1)c1ccccc1	4.05	3.06	7.08	9.61	3.15	3.28	5.58	3.96												
Nc1nc(N)c(N=O)c(Nc2ccc(I)cc2)n1		51.6		70.1	33.2	> 100	76.1	> 100												
COc1ccc(-c2cc(-c3cn[nH]c3-c3ccccn3)ccn2)cc1	> 25	> 25	> 25	> 25	> 25	> 25		> 25	> 25	> 25	> 25	> 25	> 25	> 25	> 25	> 25	> 25	> 25	> 25	
Cc1cccc(NC(=O)CCl)c1	> 10	> 10		> 10	> 10	5.64	> 10	> 10					> 10					> 10		
NC(=S)NNC(=O)CCC(=O)Nc1ccc(Cl)cc1Cl	> 100	> 100	> 100	> 100	> 100	> 100		> 100					> 100					> 100		
NC(CSc1nc2ccccn2c1[N+](=O)[O-])C(=O)O (stereo not given)	> 100		> 100	> 100	> 100	> 100	> 100	> 100					> 100					> 100		
CC(=O)OCC1OC(n2c(=O)n(-c3ccccc3)c(=O)c3cc(Br)cc(Br)c32)C(OC(C)=O)C(OC(C)=O)C1OC(C)=O (stereo not given)	> 100	> 100	> 100	> 100	> 100	> 100		> 100					> 100					> 100		
CCCCCCCCCC1C(C)c2c([nH]c3ccccc23)C2C(=O)N(c3ccccc3)C(=O)C21 (stereo not given)	22.7		26.9	29.3		26.7		> 100					24.9					28.8		
COc1c(NC(=O)CC(C)=O)[c]([Hg][O]C(C)=O)c(OC)c(Cl)[c]1[Hg][O]C(C)=O	32.6		29.5	26.5		23.2	82.1	36.3	11.3		9.69	17.7	33.9	13.7		10.1	13	25.6	17.8	3.67
C#C[C@@]1(O)[C@@H](CO)O[C@@H](n2ccc3c(N)ncnc32)[C@@H]1O		2.05		7.06	2.67	11.8	> 100	4.11	0.97	0.667		2.05	4.85	2.31	0.679	2.44			1.03	0.817
CN(C)CCNC(=O)Cn1ccc(=O)c2ccc([N+](=O)[O-])cc21	> 100	> 100		> 100	> 100	> 100	> 100						> 100					> 100		
COc1cc(C(=O)C/C(CCC(=O)Nc2ccc(Cl)cc2Cl)=N/NC(=O)C(N)=O)ccc1O	> 100		43.7	> 100	> 100	> 100		> 100					> 100					> 100		
O=C(CC(=O)Nc1ccccc1O)Nc1ccccc1O	> 100		37.2	30	33.2	> 100		> 100					> 100					> 100		
COc1ccc(/C=C/C(=O)c2ccc3cc(OC)c(OC)cc3c2)cc1OC	9.47	11.2		22.6	13.2	15.2	> 100	7.89	2.97	2.95		2.97	13.5	6.14	4.1	3.33	4.29	65.4	2.56	1.69
CCOC(=O)C(Cc1ccccc1)NC(=O)OC(C)(C)C (stereo not given)	> 100	> 100	> 100	> 100	> 100	> 100		> 100												
COc1ccc2nc(NC(=O)C(=O)C(C(=O)c3ccccc3-c3ccccc3)C3OC(=O)c4ccccc43)sc2c1 (stereo not given)	> 100	35.4	35.1	> 100	39.6	25.9		59.3					21.2							
COc1cc(/C=C/c2ccc(OC(C)=O)cc2)cc(OC)c1OC	> 100	94.1		> 100	67.2	> 100		> 100					> 100					> 100		

SMILES	TGI (HT29 colon) [µM]	TGI (LOX IMVI melanoma) [µM]	TGI (SNB-75 CNS) [µM]	TGI (UACC-257 melanoma) [µM]	TGI (COLO 205 colon) [µM]	TGI (U251 CNS) [µM]	TGI (SR leukemia) [µM]	TGI (OVCAR-8 ovarian) [µM]	GI50 (HT29 colon) [µM]	GI50 (LOX IMVI melanoma) [µM]	GI50 (SNB-75 CNS) [µM]	GI50 (NCI-H226 lung) [µM]	TGI (NCI-H226 lung) [µM]	GI50 (UACC-257 melanoma) [µM]	GI50 (COLO 205 colon) [µM]	GI50 (U251 CNS) [µM]	GI50 (CAKI-1 renal) [µM]	TGI (CAKI-1 renal) [µM]	GI50 (OVCAR-8 ovarian) [µM]	GI50 (SR leukemia) [µM]
Cc1ccc2c(Nc3cccc(Cl)c3F)ncc(NC(=O)c3csc4c(N)ncnc34)c2c1	> 100	> 100	> 100	> 100	> 100	> 100		> 100	0.0779	0.0743	> 100	> 100	> 100	0.0715	0.0492	> 76.3	0.734	> 100	> 76.8	
CNNC(=N\S(=O)(=O)c1cc(C(=O)Nc2ccc(Cl)cc2)c(Cl)cc1SCc1ccccc1)/N=C/c1ccc([N+](=O)[O-])s1	> 100	> 100		> 100	> 100	> 100	> 100	> 100	> 28.2	> 100		> 100	> 100	> 100	8.97	> 100	> 100	> 100	> 100	> 100
O=Cc1ccc(Oc2c3ccccc3nc3occc23)cc1	61.9		85.2	30.1	63		44.7	66.2	23.1		19.3			12.2	21.8		12.7	30.2	18.3	16
O=C1c2cc3c(cc2[C@@H]2[C@H]1c1ccc([N+](=O)[O-])cc1C(=O)N2CCCCl)OCO3	> 100	< 0.01	> 100		> 100	< 0.0128		> 100	< 0.01	< 0.01	< 0.0253	< 0.01	0.136	< 0.01	< 0.0131	< 0.01	< 0.01	< 0.01	< 0.01	
Cc1c(C(=O)/C=C/c2ccccc2Cl)[n+](=O)c2ccccc2n1[O-]	33.8		30.5	27.2	28.8	27.4	51.5	26.1					28.8					10.6		
Cc1ncc(C(=O)Nc2ccc(CN3CCN(C)CC3)c(C(F)(F)F)c2)cc1C#Cc1cnc(N)c2ncccc12	2.08		2.26	2.55	1.61	2.65		4.86	0.0435		0.3	0.293	24.3	0.128	0.0424	1.07	0.0719	1.46	1.1	0.472
Cc1ccc(NC(=O)CC/C(CC(=O)c2ccc(F)cc2)=N\NC(=O)C(=O)NN)cc1C	> 100	> 100	> 100	> 100	> 100	> 100		> 100					> 100					> 100		
C[C@]12CCC3c4ccc(O)cc4CCC3C1Cc1ccc(O)cc12 (stereo not given in full)	20.6	21.3	31.2	28.5	26	17.4		33.8	6.13	6.53	6.35	19	36.6	14.4	12.1	5.24	10.8	45.6	15.8	
O=C(Nc1ccccc1)NS(=O)(=O)c1ccc(N2N=C3c4ccccc4CC3C2c2ccccn2)cc1 (stereo not given)	> 100	34.2	> 100	76.6	> 100	> 100		92.3	37.9	15.4	> 100	23.7	75.3	26.6	31.1	31.9	26.4	90.2	27	
CC[C@H](C)[C@H](NC(=O)Nc1ccccc1)C(=O)N(C)[C@H](C[C@@H](OC(C)=O)c1nc(C(=O)N[C@@H](Cc2ccccc2)C[C@H](C)C(=O)OC)cs1)C(C)C	> 100	> 100		> 100	18.2	> 100		> 100	3.33	4.76		8.83	> 100	> 100	3.17	3.16	9.01	> 100	4.69	
CO[C@H]1C[C@@H]2CC[C@@H](C)[C@@](O)(O2)C(=O)C(=O)N2CCCC[C@H]2C(=O)O[C@H]([C@H](C)C[C@@H]2CC[C@@H](OP(C)(C)=O)[C@H](OC)C2)CC(=O)[C@H](C)/C=C(\C)[C@@H](O)[C@@H](OC)C(=O)[C@H](C)C[C@H](C)/C=C/C=C/C=C/1C	24	21.7	15.7	21.8	27.7	19.2		28.8	8.07	< 0.01	< 0.01	1.71	24.2	3.21	12.7	0.0208	10.8	25.9	< 0.01	
CCC[CH2][Sn]([CH2]CCC)([O]C(=O)c1cc(OC)c(OC)cc1OC)[O]C(=O)c1cc(OC)c(OC)cc1OC	4.67	3.34	1.53	3.31	2.6	2.66		3.03	1.96	1.04	0.402	2.21	8.26	1.29	1.25	1.35	0.419	1.63	1.48	
COc1cc2ccnc(-c3c4ccccc4c(N)c4c(OC)c(OC)ccc34)c2cc1OC	11.7	3.08		4.37	3.09	14	6.19						5.66					8.72		
CCC[CH2][Ge]([CH2]CCC)([CH2]CCC)[O]C(=O)C(O)c1ccccc1 (stereo not given)	20.8	13.6	> 100	15.5	12	20.3		22.4	3.32	1.85	4.51	1.2	27.9	1.08	2.33	2.32	5.9	24.1	10.6	
O=C(NNc1ccccc1)OCc1ccccc1	> 100	> 100	> 100	> 100	46.4	> 100	> 100	> 100	54.6	15.2	> 100			18.5	17	70.6	1.02	14.2	11.2	41.3
Nc1ccc2c(c1)CC1c3ccccc3C(C2)c2ccccc21	> 100	> 100	> 100	> 100	> 100	> 100		> 100										> 100		
CC1=C(C(=O)CC(=O)C(=O)Nc2ccccc2)Sc2ccccc2N1	> 100	> 100		> 100	> 100	> 100		> 100					> 100							
